Measurements from ChEMBL document CHEMBL1201862, “PubChem BioAssay data set” (2004).
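Step 1: Grow cells in 96-well plates. Step 2: Expose to compound for 48 hours at 5 concentrations. Step 3: Interpolate endpoints linearly; if unreached, use highest concentration. GI50: concentration for 50% inhibition of growth.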 Calls of active or inactive are those of the source. Rule as the data show it: active = GI50 up to about 1.1 µM and inactive = higher.

Tests used:
Assay in all cases: inhibition of tumour cell growth, NCI panel, 48 h
HOP-62 = system: HOP-62
OVCAR-4 = system: OVCAR-4
SK-OV-3 = system: SK-OV-3
BT-549 = system: BT-549
HCT-15 = system: HCT-15
OVCAR-5 = system: OVCAR-5
ACHN = system: ACHN
SN12C = system: SN12C
CAKI-1 = system: CAKI-1
SF-539 = system: SF-539
OVCAR-8 = system: OVCAR-8
MDA-MB-231 = system: MDA-MB-231
UACC-257 = system: UACC-257
SR = system: SR
SF-295 = system: SF-295
A498 = system: A498
SNB-75 = system: SNB-75
MDA-MB-435 = system: MDA-MB-435
PC-3 = system: PC-3
Hs-578T = system: Hs-578T

Compound | GI50 (HOP-62) | GI50 (OVCAR-4) | GI50 (SK-OV-3) | GI50 (BT-549) | GI50 (HCT-15) [µM] | GI50 (OVCAR-5) | GI50 (ACHN) | GI50 (SN12C) | GI50 (CAKI-1) | GI50 (SF-539) | GI50 (OVCAR-8) | GI50 (MDA-MB-231) | GI50 (UACC-257) | GI50 (SR) | GI50 (SF-295) | GI50 (A498) | GI50 (SNB-75) | GI50 (MDA-MB-435) | GI50 (PC-3) | GI50 (Hs-578T)
O=C1C(O)=C(C(C2=C(O)C(=O)c3ccccc3C2=O)c2ccc(Cl)cc2)C(=O)c2ccccc21 | 6.47 µM (inactive) | 6.24 µM (inactive) | 17.7 µM (inactive) | 15.6 µM (inactive) | 9.12 | 7.93 µM (inactive) | 6.46 µM (inactive) | 1.71 µM (inactive) | 9.4 µM (inactive) | 18 µM (inactive) | 8.75 µM (inactive) | 3.15 µM (inactive) | 5 µM (inactive) | 3.18 µM (inactive) | 5.78 µM (inactive) | 18.4 µM (inactive) | 2.5 µM (inactive) | 1.83 µM (inactive) | 18.8 µM (inactive) | 14.7 µM (inactive)
COc1ccccc1/C=C/C1=NN(c2cccc(S(=O)(=O)O)c2)C2(C1)C(Cl)C(=O)N2c1nc2ccccc2s1 (stereo not drawn) | > 100 µM (inactive) | 42.2 µM (inactive) | > 100 µM (inactive) | 49.2 µM (inactive) | 57.4 | > 100 µM (inactive) | 57.3 µM (inactive) | > 84.1 µM (inactive) | 31.8 µM (inactive) | 58.2 µM (inactive) | > 51.4 µM (inactive) | > 94.6 µM (inactive) | 56.8 µM (inactive) | 22.1 µM (inactive) | 89.3 µM (inactive) | > 81.3 µM (inactive) | 42.8 µM (inactive) | 54.6 µM (inactive) | 76.6 µM (inactive) | > 100 µM (inactive)
COC(=O)NNC(c1ccc(Cl)cc1)c1ccc(Cl)cc1 |  | 20.8 µM (inactive) | 23.7 µM (inactive) | 16.1 µM (inactive) | 15.2 | 15.7 µM (inactive) |  | 19.5 µM (inactive) | 16.1 µM (inactive) | 20.7 µM (inactive) | 19.1 µM (inactive) | 12.2 µM (inactive) | 18.2 µM (inactive) | 20.2 µM (inactive) |  | 18.6 µM (inactive) | 26.2 µM (inactive) | 31.8 µM (inactive) | 12.2 µM (inactive) | 20.4 µM (inactive)
BC(=O)NC(CC(C)C)C(=O)NCC(=O)NC1c2ccsc2C(=O)C1O.CN(C)C (stereo not drawn) | > 100 µM (inactive) | > 100 µM (inactive) | > 100 µM (inactive) | > 100 µM (inactive) | > 100 | > 100 µM (inactive) | > 100 µM (inactive) | > 100 µM (inactive) | > 100 µM (inactive) | > 100 µM (inactive) | > 100 µM (inactive) | > 100 µM (inactive) | > 100 µM (inactive) | > 100 µM (inactive) | > 100 µM (inactive) | > 100 µM (inactive) | > 100 µM (inactive) | > 100 µM (inactive) | > 100 µM (inactive) | > 100 µM (inactive)
Cn1c2ccccc2c2nc3ccccc3c(Cl)c21 | > 100 µM (inactive) | > 100 µM (inactive) | 35.9 µM (inactive) | > 100 µM (inactive) | > 100 | 49 µM (inactive) |  | > 100 µM (inactive) | > 100 µM (inactive) | > 100 µM (inactive) | > 100 µM (inactive) | > 100 µM (inactive) | > 100 µM (inactive) | > 100 µM (inactive) | > 100 µM (inactive) | > 100 µM (inactive) | 23.4 µM (inactive) | > 100 µM (inactive) | > 100 µM (inactive) | > 100 µM (inactive)
CCC1(O)C(=O)OCc2c1cc1n(c2=O)Cc2cc3c(N)cccc3nc2-1 (stereo not drawn) [RS-9-Aminocamptothecin] | < 0.0119 µM (active) | 0.345 µM (active) | 0.0264 µM (active) | 0.0668 µM (active) | 0.267 | 0.19 µM (active) | < 0.01 µM (active) | < 0.01 µM (active) | < 0.01 µM (active) | < 0.014 µM (active) | 0.027 µM (active) | 2.1 µM (inactive) | 0.121 µM (active) | < 0.01 µM (active) | 0.0102 µM (active) | 0.156 µM (active) | 0.013 µM (active) | 0.0607 µM (active) | 0.115 µM (active) | 3.65 µM (inactive)
Cc1ccc(C(O)c2cnc(C)n2Cc2ccccc2)cc1 (stereo not drawn) | > 100 µM (inactive) | > 100 µM (inactive) | > 100 µM (inactive) | > 100 µM (inactive) | > 100 | > 100 µM (inactive) | > 100 µM (inactive) | > 100 µM (inactive) | > 100 µM (inactive) | > 100 µM (inactive) | > 100 µM (inactive) | > 100 µM (inactive) | 67.1 µM (inactive) | > 100 µM (inactive) | > 100 µM (inactive) | > 100 µM (inactive) | > 100 µM (inactive) | > 100 µM (inactive) | > 100 µM (inactive) | > 100 µM (inactive)
C[C@H](c1ccccc1)n1c(N)c(-c2nc3ccccc3s2)c2ccc([N+](=O)[O-])cc2c1=O | 11.6 µM (inactive) | 4.34 µM (inactive) | 8.99 µM (inactive) | 11.5 µM (inactive) | 4.76 | 11.5 µM (inactive) | 10.1 µM (inactive) | 8.32 µM (inactive) | 15.4 µM (inactive) | 16.9 µM (inactive) | 3.83 µM (inactive) | 3.89 µM (inactive) | 11.8 µM (inactive) | 1.44 µM (inactive) | 4.7 µM (inactive) | 11 µM (inactive) | 4.58 µM (inactive) | 9.66 µM (inactive) | 3.09 µM (inactive) | 2.58 µM (inactive)
Nc1nc(Cl)cc(Oc2ccc(Cl)cc2)n1 | > 100 µM (inactive) | > 53.2 µM (inactive) | > 55.2 µM (inactive) | 28.2 µM (inactive) | > 57.4 | > 56.1 µM (inactive) | 31.4 µM (inactive) | > 51.9 µM (inactive) | 44.6 µM (inactive) | > 50.7 µM (inactive) | > 73.6 µM (inactive) | > 56.1 µM (inactive) | 38.5 µM (inactive) | > 80.4 µM (inactive) | > 55.8 µM (inactive) | > 47.5 µM (inactive) | > 100 µM (inactive) | > 57.3 µM (inactive) | > 100 µM (inactive) | > 53.7 µM (inactive)
COc1ccc(N2CCN(Cc3c(C(C)=O)[n+]([O-])c4ccccc4[n+]3[O-])CC2)cc1 | 16.4 µM (inactive) | 38.3 µM (inactive) | 32.3 µM (inactive) | 17 µM (inactive) | 47.1 | 68.2 µM (inactive) | 22 µM (inactive) | 41.2 µM (inactive) | > 100 µM (inactive) |  | 28.7 µM (inactive) | 31.2 µM (inactive) | 29.8 µM (inactive) | 37.8 µM (inactive) | 51.8 µM (inactive) | 44.7 µM (inactive) | 15.6 µM (inactive) | 32.6 µM (inactive) | 87.5 µM (inactive) | 25.2 µM (inactive)
CCOC(=O)[C@@H](NC(=O)OC(C)(C)C)[C@@H](O)C(=O)OCC | > 100 µM (inactive) | > 100 µM (inactive) | > 100 µM (inactive) | > 100 µM (inactive) | > 100 | > 100 µM (inactive) | > 100 µM (inactive) | > 100 µM (inactive) | > 100 µM (inactive) |  | > 100 µM (inactive) | > 100 µM (inactive) | > 100 µM (inactive) | > 100 µM (inactive) | > 100 µM (inactive) | 69.5 µM (inactive) | > 100 µM (inactive) | > 100 µM (inactive) | > 100 µM (inactive) | > 100 µM (inactive)
C=C1C(=O)O[C@H]2[C@@H](O)[C@H](C)CCC[C@]3(C)O[C@H]3CC[C@@]3(C)O[C@@H]3C[C@@H]12 | 7.4 µM (inactive) | 2.66 µM (inactive) | 10.1 µM (inactive) | 1.24 µM (inactive) | 1.29 | 6.22 µM (inactive) |  | 5.74 µM (inactive) | 6.22 µM (inactive) | 6.81 µM (inactive) | 6.25 µM (inactive) | 4.08 µM (inactive) |  | 1.43 µM (inactive) | 8.55 µM (inactive) | 7.33 µM (inactive) | 6.9 µM (inactive) | 3.74 µM (inactive) | 7.43 µM (inactive) | 7.59 µM (inactive)
N#Cc1cccc2c1Sc1ccccc1N2 |  |  | 38.9 µM (inactive) | 28.4 µM (inactive) | 23.6 | 26.7 µM (inactive) | 33.4 µM (inactive) | 39.2 µM (inactive) | 32.2 µM (inactive) | 20.4 µM (inactive) | 29.5 µM (inactive) | 24.5 µM (inactive) | 35.1 µM (inactive) | 33.7 µM (inactive) | 23.9 µM (inactive) | 14.8 µM (inactive) | 1.77 µM (inactive) | 27.3 µM (inactive) | 14.1 µM (inactive) | 0.397 µM (active)
Nc1nc(-c2ccccc2)cc(-c2ccc(OCc3ccccc3)cc2O)n1 | 83.9 µM (inactive) | 71.6 µM (inactive) |  | 28.8 µM (inactive) | 32.2 | > 100 µM (inactive) | 31.3 µM (inactive) | 76.9 µM (inactive) | 57.1 µM (inactive) | 26 µM (inactive) | 29.6 µM (inactive) | 70.3 µM (inactive) | 48.8 µM (inactive) | 39.8 µM (inactive) | 36.4 µM (inactive) | 60.3 µM (inactive) | 67.6 µM (inactive) | 34 µM (inactive) | 34.4 µM (inactive) | 37.1 µM (inactive)
O=P1(O)c2ccccc2CSCc2ccccc21 | > 100 µM (inactive) | > 100 µM (inactive) | > 100 µM (inactive) | > 100 µM (inactive) | > 100 | > 100 µM (inactive) | > 100 µM (inactive) | > 100 µM (inactive) | > 100 µM (inactive) | > 100 µM (inactive) | > 100 µM (inactive) | > 100 µM (inactive) | > 100 µM (inactive) | > 100 µM (inactive) | > 100 µM (inactive) | > 100 µM (inactive) |  | > 100 µM (inactive) | > 100 µM (inactive) | > 100 µM (inactive)
